The nature of data set [1]: Cytotoxicity against IL-4-treated mouse T cells assessed as reduction in cell viability at 10 uM measured after 72 hrs by MTS assay. It counts as cell-based. Background: Tetrazolium assays rely on reduction of a dye to a coloured formazan, in cell work by metabolically active cells.
The subject of another data set is RAW264.7. In words: Cytotoxicity against mouse RAW264.7 cells assessed as reduction in cell viability at 10 uM measured after 72 hrs by MTS assay. It counts as cell-based. The conditions noted are these: raw264.7, 72 h.
The target in data set [2] is Non-receptor tyrosine-protein kinase TYK2 (Homo sapiens, UniProt P29597). Kind of data set: Inhibition of recombinant human N-terminal GST-tagged TYK2 cytoplasmic domain (833 to 1187 residues) expressed in baculovirus expression system using TK-substrate-biotin preincubated for 5 mins followed by substrate addition and measured after 30 mins by HTRF assay. (In general: In TR-FRET formats the signal depends on donor and acceptor labels being close together.)
Chain of Non-receptor tyrosine-protein kinase TYK2 (P29597 whole entry, the tested form may be a part): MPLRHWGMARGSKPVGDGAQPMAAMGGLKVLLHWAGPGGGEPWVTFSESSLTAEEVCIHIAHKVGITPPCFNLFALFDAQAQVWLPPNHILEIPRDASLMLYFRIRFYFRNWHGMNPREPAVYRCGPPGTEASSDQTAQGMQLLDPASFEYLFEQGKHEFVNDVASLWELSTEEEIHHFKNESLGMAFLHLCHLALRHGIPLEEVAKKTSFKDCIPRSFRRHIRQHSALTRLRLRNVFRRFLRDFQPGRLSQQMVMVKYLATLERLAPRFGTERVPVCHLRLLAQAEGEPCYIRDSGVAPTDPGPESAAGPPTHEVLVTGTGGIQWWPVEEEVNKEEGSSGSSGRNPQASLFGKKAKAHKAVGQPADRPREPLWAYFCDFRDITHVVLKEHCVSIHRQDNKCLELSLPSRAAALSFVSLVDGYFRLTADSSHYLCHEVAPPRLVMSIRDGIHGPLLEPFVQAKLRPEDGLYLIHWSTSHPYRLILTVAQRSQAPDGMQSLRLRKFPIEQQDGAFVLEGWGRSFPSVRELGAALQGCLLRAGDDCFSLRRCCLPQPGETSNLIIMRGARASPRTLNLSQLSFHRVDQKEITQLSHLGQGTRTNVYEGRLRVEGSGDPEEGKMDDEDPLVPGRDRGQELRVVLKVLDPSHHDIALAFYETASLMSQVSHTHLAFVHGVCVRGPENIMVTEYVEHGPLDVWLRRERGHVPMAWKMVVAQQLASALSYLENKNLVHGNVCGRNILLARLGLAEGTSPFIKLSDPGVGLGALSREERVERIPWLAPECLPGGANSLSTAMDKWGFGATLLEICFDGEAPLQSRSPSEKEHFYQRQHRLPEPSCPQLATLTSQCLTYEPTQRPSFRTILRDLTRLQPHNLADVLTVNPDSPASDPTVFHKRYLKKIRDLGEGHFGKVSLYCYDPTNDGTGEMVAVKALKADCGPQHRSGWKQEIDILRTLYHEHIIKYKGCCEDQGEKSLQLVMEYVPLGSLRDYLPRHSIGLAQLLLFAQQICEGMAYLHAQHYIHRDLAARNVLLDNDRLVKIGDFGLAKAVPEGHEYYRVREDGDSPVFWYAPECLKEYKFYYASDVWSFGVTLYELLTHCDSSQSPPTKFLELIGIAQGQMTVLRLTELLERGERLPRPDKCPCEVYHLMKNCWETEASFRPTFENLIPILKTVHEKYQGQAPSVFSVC

Data set [3] concerns the target T1, Tyrosine-protein kinase JAK3 (Homo sapiens, UniProt P52333).
T1 sequence (P52333 whole entry): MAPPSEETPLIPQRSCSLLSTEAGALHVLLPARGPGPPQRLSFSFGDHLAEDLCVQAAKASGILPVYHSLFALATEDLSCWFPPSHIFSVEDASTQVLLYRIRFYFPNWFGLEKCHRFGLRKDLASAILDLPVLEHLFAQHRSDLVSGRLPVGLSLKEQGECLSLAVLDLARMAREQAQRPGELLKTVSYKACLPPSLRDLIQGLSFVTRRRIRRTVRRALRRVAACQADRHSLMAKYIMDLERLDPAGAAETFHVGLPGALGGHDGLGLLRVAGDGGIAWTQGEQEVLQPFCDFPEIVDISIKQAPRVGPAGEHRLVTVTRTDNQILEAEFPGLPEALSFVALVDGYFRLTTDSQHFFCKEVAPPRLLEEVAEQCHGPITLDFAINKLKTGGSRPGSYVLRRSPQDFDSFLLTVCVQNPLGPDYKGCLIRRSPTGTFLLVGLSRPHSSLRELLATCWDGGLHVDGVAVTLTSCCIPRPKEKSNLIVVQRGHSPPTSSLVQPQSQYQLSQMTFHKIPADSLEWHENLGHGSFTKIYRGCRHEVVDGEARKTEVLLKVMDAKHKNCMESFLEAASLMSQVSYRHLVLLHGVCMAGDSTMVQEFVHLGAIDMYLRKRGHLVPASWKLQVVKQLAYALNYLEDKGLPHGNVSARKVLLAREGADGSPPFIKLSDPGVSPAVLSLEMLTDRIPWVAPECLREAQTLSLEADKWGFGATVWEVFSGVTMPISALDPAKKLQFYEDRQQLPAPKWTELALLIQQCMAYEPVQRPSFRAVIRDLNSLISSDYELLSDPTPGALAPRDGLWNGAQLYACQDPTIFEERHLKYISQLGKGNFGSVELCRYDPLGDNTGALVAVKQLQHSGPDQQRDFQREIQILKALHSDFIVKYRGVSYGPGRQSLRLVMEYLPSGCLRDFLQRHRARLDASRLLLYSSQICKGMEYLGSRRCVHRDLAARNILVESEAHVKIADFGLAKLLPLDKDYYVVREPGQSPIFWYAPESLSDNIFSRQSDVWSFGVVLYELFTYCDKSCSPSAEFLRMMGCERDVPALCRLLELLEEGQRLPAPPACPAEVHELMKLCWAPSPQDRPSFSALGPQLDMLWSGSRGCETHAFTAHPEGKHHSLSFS

The target of data set [4] is T2, Tyrosine-protein kinase JAK2 (Homo sapiens, UniProt O60674). It counts as ADME.
T2 sequence (O60674 whole entry): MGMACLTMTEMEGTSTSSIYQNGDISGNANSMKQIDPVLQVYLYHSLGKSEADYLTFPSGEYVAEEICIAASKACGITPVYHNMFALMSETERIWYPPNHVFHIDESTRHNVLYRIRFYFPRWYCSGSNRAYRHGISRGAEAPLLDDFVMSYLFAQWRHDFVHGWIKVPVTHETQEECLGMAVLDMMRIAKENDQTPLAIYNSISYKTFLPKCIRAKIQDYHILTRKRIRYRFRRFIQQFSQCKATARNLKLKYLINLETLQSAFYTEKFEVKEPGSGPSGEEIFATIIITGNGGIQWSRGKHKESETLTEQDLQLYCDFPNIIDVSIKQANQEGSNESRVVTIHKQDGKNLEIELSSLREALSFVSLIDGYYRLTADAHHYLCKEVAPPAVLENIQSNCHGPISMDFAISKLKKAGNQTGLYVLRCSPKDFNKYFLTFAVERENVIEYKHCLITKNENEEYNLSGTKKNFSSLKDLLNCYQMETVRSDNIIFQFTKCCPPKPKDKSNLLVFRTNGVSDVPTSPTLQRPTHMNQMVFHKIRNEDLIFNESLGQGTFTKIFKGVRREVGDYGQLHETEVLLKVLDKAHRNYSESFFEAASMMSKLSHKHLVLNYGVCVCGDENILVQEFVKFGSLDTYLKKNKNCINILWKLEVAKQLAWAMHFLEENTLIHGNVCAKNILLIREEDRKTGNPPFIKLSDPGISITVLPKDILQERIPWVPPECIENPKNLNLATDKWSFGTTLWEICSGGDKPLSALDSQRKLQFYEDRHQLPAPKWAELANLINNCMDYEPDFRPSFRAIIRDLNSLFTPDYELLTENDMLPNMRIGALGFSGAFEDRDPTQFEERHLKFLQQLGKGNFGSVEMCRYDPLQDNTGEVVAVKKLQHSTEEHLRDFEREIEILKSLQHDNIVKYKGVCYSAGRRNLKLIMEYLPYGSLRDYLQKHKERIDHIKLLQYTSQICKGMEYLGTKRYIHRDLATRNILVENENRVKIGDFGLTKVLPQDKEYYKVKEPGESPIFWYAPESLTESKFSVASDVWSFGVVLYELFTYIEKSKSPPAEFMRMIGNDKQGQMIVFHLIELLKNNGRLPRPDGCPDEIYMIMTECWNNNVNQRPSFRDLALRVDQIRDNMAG
Data set [5] addresses T3, Tyrosine-protein kinase JAK3 (Mus musculus) (UniProt Q62137).
T3 sequence (whole entry): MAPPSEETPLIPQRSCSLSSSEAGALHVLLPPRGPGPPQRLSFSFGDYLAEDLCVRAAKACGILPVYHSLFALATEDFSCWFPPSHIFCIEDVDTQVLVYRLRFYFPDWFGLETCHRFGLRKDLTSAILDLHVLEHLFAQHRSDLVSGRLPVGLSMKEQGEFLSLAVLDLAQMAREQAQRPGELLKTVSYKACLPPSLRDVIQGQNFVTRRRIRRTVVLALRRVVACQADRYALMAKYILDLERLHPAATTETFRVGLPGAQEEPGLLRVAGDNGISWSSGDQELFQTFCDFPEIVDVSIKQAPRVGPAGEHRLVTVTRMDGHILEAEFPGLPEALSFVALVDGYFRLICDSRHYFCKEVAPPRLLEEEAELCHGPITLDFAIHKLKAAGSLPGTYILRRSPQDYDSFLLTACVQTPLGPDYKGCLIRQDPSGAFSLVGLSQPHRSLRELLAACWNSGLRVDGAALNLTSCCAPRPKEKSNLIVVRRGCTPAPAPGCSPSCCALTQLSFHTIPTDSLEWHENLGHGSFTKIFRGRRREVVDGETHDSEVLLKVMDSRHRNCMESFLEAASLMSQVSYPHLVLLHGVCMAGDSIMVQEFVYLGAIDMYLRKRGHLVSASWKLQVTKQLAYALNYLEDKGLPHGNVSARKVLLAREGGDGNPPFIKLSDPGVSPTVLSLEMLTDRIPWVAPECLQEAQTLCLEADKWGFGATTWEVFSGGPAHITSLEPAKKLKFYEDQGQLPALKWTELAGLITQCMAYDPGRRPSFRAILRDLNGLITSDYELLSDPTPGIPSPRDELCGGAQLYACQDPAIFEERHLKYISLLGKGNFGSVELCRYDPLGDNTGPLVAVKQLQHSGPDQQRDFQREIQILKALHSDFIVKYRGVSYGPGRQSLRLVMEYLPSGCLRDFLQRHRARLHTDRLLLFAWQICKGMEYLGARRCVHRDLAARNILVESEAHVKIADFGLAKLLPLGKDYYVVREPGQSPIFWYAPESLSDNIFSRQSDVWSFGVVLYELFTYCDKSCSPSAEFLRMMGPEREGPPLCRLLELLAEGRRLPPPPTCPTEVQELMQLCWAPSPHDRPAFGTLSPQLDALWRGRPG
Kind of data set: Inhibition of JAK3 in anti-CD3/-CD28 coated mouse T cells assessed as reduction in IL15-induced STAT5 phosphorylation at 10 uM preincubated for 1 hr followed by […] and measured after 30 mins by Western blot analysis. The settings on record: T cell.

Data set [6] addresses Tyrosine-protein kinase JAK1 (Homo sapiens, UniProt P23458). In words: Inhibition of recombinant human GST-tagged JAK1 cytoplasmic domain (866 to 1154 residues) expressed in baculovirus expression system using TK-substrate-biotin preincubated for 5 mins followed by substrate addition and measured after 30 mins by HTRF assay.
A short description of data set [7]: Cytotoxicity against resting mouse T cells assessed as reduction in cell viability at 10 uM measured after 72 hrs by MTS assay. It counts as cell-based.
Data set [8] addresses T3, Tyrosine-protein kinase JAK3 (Mus musculus). Kind of data set: Inhibition of JAK3 in anti-CD3/-CD28 coated mouse T cells assessed as reduction in IL2-induced STAT5 phosphorylation at 10 uM preincubated for 1 hr followed by IL2 stimulation and measured after 30 mins by Western blot analysis. The conditions noted are these: T cell.
The target in data set [9] is T2, Tyrosine-protein kinase JAK2. In words: Inhibition of recombinant human C-terminal His6-tagged JAK2 (808 to end residues) expressed in baculovirus infected Sf21 insect cells using Biotin-TYR1 (Biotin-(Ahx)-GAEEEIYAAFFA-COOH as substrate.
The species entered for data set [10] is Homo sapiens. In words: Selectivity ratio of IC50 for inhibition of recombinant human C-terminal His6-tagged JAK2 (808 to end residues) expressed in baculovirus infected Sf21 insect cells to IC50 for inhibition of recombinant human GST-tagged JAK3 catalytic domain (811 to 1103 residues) expressed in Sf9 insect cells.
For data set [11], the species on record is Homo sapiens. In words: Selectivity ratio of IC50 for inhibition of recombinant human GST-tagged JAK1 catalytic domain (845 to 1142 residues) expressed in Sf9 insect cells to IC50 for inhibition of recombinant human GST-tagged JAK3 catalytic domain (811 to 1103 residues) expressed in Sf9 insect cells.

Calls of active or inactive are those of the source. The calls are words filed in the database; no cut-off is given here. Where only a bound is given, the exact number is not on record here.

For orientation: IC50 means the concentration that inhibits the measured activity by half.

Chain of Tyrosine-protein kinase JAK1 (P23458 whole entry, the tested form may be a part): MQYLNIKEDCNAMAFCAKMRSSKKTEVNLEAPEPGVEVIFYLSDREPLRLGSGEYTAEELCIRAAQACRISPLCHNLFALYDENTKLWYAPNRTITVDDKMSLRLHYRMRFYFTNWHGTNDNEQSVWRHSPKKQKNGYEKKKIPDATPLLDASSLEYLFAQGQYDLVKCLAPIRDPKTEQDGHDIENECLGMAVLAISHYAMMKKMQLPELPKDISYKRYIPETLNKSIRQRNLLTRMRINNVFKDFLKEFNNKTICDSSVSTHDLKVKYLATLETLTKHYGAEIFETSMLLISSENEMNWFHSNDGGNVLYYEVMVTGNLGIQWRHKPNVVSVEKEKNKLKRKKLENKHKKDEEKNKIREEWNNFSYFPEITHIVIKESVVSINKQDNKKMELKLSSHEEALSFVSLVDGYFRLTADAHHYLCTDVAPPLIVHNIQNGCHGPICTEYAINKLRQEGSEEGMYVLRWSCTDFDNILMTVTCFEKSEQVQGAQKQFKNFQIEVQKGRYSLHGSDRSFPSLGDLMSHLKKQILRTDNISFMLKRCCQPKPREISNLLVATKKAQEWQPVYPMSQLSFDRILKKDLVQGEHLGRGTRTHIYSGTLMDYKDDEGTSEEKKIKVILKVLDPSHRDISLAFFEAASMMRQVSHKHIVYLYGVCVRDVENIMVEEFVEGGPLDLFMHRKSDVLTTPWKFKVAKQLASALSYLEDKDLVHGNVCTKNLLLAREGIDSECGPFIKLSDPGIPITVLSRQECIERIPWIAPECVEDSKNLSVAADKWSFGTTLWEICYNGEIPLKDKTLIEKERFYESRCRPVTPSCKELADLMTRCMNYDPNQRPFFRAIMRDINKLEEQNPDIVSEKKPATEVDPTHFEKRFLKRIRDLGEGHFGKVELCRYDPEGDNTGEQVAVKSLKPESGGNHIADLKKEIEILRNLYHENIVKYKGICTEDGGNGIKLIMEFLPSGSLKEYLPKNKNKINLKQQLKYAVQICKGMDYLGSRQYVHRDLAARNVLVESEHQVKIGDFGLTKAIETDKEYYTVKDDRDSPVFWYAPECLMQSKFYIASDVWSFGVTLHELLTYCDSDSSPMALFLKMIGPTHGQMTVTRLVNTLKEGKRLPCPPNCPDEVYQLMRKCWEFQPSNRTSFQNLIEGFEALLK

Turning to `C=CC(=O)Nc1ccc(-c2ccnc(Nc3cnn(CCOC)c3)n2)cc1`, the Activity entry (in [1]; with RAW264.7; in [7]) was “Non-Toxic” throughout. For the same molecule, the IC50 in [2] was above 3000 nM; in data set [3], 9.1 nM; in data set [4], 1080 nM; in data set [6], 1560 nM. Further, the inhibition entry in [5] and in data set [8] was “Active” each time.

Regarding `CC[C@H]1CN(C(=O)NCC(F)(F)F)C[C@H]1C1C=NC2=CN=C3NC=CC3N21` (stereo partly specified), the half-inhibitory concentration (IC50) in [9] amounted to 120 nM. Also, the Ratio IC50 was 19 in the data set filed under Homo sapiens [10] and 49 in the data set listed under Homo sapiens [11].

For the molecule `C/C=C/C(=O)Nc1ccc(-c2ccnc(Nc3ccc(N4CCOCC4)cc3)n2)cc1`, the Activity entry (in data set [1]; with RAW264.7; in data set [7]) was “Non-Toxic” in each case. Also, the half-inhibitory concentration (IC50) is above 3000 nM in data set [2], 6.1 nM in [3], 1410 nM in [4] and 1150 nM in [6]. Also, the inhibition entry in data set [5] and in data set [8] was “Active” in each case.
